From patent US20260132164A1, “PNU ANTHRACYCLINE DERIVATIVES AND METHODS OF USE THEREOF” (Merck Sharp & Dohme LLC, priority 2022, published 2026)

Tested on: BxPC3
Assay: CellTiter-Glo 2.0 Cytotoxicity Assay
Format: cell-based
Conditions: compound added day 1, read on day 4 or 5, 3000 cells/well
[1] = Homo sapiens, BXPC-3, CellTiter-Glo 2.0 luminescence

SMILES	EC50 [1] [nM]	EC50 (CellTiter-Glo 2.0 luminescence) [nM]
COc1cccc2c1C(=O)c1c(O)c3c(c(O)c1C2=O)C[C@@](O)(C(=O)NC[C@H]1CNC(=O)C1)C[C@@H]3O[C@H]1C[C@H]2[C@H](O[C@@H]3[C@@H](OC)OCCN32)[C@H](C)O1 [Compound 85]	0.4	
COc1cccc2c1C(=O)c1c(O)c3c(c(O)c1C2=O)C[C@@](O)(C(=O)NC[C@@H]1CNC(=O)C1)C[C@@H]3O[C@H]1C[C@H]2[C@H](O[C@@H]3[C@@H](OC)OCCN32)[C@H](C)O1 [Compound 86]	0.39	
COc1cccc2c1C(=O)c1c(O)c3c(c(O)c1C2=O)C[C@@](O)(C(=O)NCC1CC(=O)NC1=O)C[C@@H]3O[C@H]1C[C@H]2[C@H](O[C@@H]3[C@@H](OC)OCCN32)[C@H](C)O1 (stereo partly drawn) [Compound 87]		0.12
COc1cccc2c1C(=O)c1c(O)c3c(c(O)c1C2=O)C[C@@](O)(C(=O)NCC1CC(=O)NC1=O)C[C@@H]3O[C@H]1C[C@H]2[C@H](O[C@@H]3[C@@H](OC)OCCN32)[C@H](C)O1 (stereo partly drawn) [Compound 88]		0.27
COc1cccc2c1C(=O)c1c(O)c3c(c(O)c1C2=O)C[C@@](O)(C(=O)NCCO)C[C@@H]3O[C@H]1C[C@H]2[C@H](O[C@@H]3[C@@H](OC)OCCN32)[C@H](C)O1 [Compound 89]	0.37	
COc1cccc2c1C(=O)c1c(O)c3c(c(O)c1C2=O)C[C@@](O)(C(=O)NC12CC(O)(C1)C2)C[C@@H]3O[C@H]1C[C@H]2[C@H](O[C@@H]3[C@@H](OC)OCCN32)[C@H](C)O1 [Compound 90]	0.23	
